Measurements: patent US20260027100A1, “THERAPEUTIC TYROSINE KINASE INHIBITORS FOR MYELIN OLIGODENDROCYTE GLYCOPROTEIN ANTIBODY DISEASE (MOGAD)” (Principia Biopharma Inc., priority 2022, published 2026)

Columns and labels:
Assay type in all cases: in vivo, human
[1] = Phase 2b dose-finding trial (DRI15928): PK data and effect of fed status on tolebrutinib exposure; settings: effect of fed status on exposure; Phase 2b trial in relapsing multiple sclerosis
Protocol: (§1) The choice of the dose of 60 mg of the BTK inhibitor taken with food is based on the results of a Phase 2b dose-finding trial for tolebrutinib in participants with relapsing multiple sclerosis (DRI15928). See for example, Reich, D. S., et al., Safety and efficacy of tolebrutinib, an oral brain-penetrant BTK inhibitor, in relapsing multiple sclerosis: a phase 2b, randomised, double-blind, placebo-controlled trial. Lancet Neurol, 2021. 20(9): p. 729-738.
(§2) The choice of the dose of 60 mg tolebrutinib taken with food is based on the results of the Phase 2b dose-finding trial for tolebrutinib in adult participants with relapsing multiple sclerosis (DRI15928).

[2] = tested on: participants with relapsing multiple sclerosis; experiment: Phase 2b dose-finding trial (DRI15928): treatment response versus exposure, new gadolinium-enhancing T1-hyperintense lesions; settings: after 12 weeks of treatment
Protocol: as §1, §2

[3] = tested on: participants with relapsing multiple sclerosis; experiment: Phase 2b dose-finding trial (DRI15928): safety (TEAEs, AESIs, PCSAs); settings: Phase 2b trial
Protocol: as §1
There were low numbers of AESIs and PCSAs observed.
as §2

[4] = Ongoing tolebrutinib Phase 3 trials: hepatic safety; settings: ongoing Phase 3 trials
Text: Thus, there is a need to mitigate the risk of hepatic injury and provide safe treatment for patients with MOGAD.

- increase in AUC0-24 (positive food effect) [1]: approximately 2 fold
Compound: C=CC(=O)N1CCC[C@@H](n2c(=O)n(-c3ccc(Oc4ccccc4)cc3)c3c(N)nccc32)C1 [tolebrutinib, (R)-1-(1-acryloylpiperidin-3-yl)-4-amino-3-(4-phenoxyphenyl)-1H-imidazo[4,5-c]pyridin-2(3H)-one]
- correlation between treatment response and exposure (new gadolinium-enhancing T1-hyperintense lesions) [2]: higher exposure was associated with low numbers of new gadolinium-enhancing T1-hyperintense lesions
- numbers of AESIs and PCSAs observed [3]: low numbers
- new risks identified ([3]; overall): no new risks were identified
- correlation between dose administered and number of TEAEs ([3]; tolebrutinib treatment arms): no correlation
- most common events (preferred terms) ([3]; tolebrutinib treatment arms): headache, upper respiratory tract infection, and nasopharyngitis
- drug-induced liver injury [4]: Drug-induced liver injury has been identified
- time of occurrence of reported liver injury events after start of administration [4]: 2 to 3 months
- course of liver enzyme elevation after discontinuation ([4]; after tolebrutinib discontinuation): appears reversible
